Experimental data: publication PMC5580309, “Molecular-scale features that govern the effects of O-glycosylation on a carbohydrate-binding module” (Chemical Science, 2015)
Bridge positions count the residues as written; N and C are the ends. Square brackets hold non-standard residues; d marks the D form. Peptide text beside a SMILES is read from it. * marks the point of attachment. X5 = O=P(O)(O)OC[C@H]1O[C@H](*)[C@@H](O)[C@@H](O)[C@@H]1O; X3 = CC(=O)N[C@@H]1[C@@H](O)[C@H](O)[C@@H](CO)O[C@@H]1*; X7 = CC(=O)N[C@H]1[C@@H](O)[C@H](O)[C@@H](CO)O[C@@H]1*; αMan = OC[C@H]1O[C@H](*)[C@@H](O)[C@@H](O)[C@@H]1O; hSer = N[C@@H](CCO)C(=O)O

Target: T1, thermolysin (Bacillus thermoproteolyticus, UniProt P00800)
T1 sequence (P00800 233-548): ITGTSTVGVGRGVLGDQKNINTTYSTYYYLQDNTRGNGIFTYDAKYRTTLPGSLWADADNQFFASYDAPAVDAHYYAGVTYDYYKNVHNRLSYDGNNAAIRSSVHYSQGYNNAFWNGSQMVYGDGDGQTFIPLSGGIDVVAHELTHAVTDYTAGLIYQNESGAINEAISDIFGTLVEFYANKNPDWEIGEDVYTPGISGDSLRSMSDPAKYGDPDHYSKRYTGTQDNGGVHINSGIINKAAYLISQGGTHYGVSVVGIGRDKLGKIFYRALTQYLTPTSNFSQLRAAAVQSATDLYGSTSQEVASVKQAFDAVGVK
Experiment: Proteolytic stability: half-life to thermolysin degradation
Type: in vitro ADME
Details: for Change in Half-Life to Thermolysin Degradation: glyco-variant minus its corresponding unglycosylated CBM (e.g. 2-1), *** not used in the correlation plot; for half-life: thermolysin (isolated protease), thermolysin degradation, mean of three trials ± SD, procedures as described previously (ESI ref 18)
Procedure: All error bars reported are standard deviations of data achieved from three separate trials.
cellulose that were determined in accordance with our procedures as described previously 18.
The results are presented as mean of three trials ± SD. *Denotes an averaged value of four trials

Compound | Change in Half-Life to Thermolysin Degradation | half-life
CC[C@H](C)[C@@H]1NC(=O)CNC(=O)CNC(=O)[C@@H](NC(=O)[C@H](CCC(N)=O)NC(=O)CNC(=O)[C@H](Cc2ccc(O)cc2)NC(=O)[C@H](Cc2c[nH]cn2)NC(=O)[C@H](CS[C@H]2O[C@H](CO)[C@@H](O)[C@H](O)[C@@H]2O)NC(=O)[C@H](CCC(N)=O)NC(=O)[C@@H](N)[C@@H](C)O)CSSC[C@@H]2NC(=O)[C@H]([C@@H](C)O)NC(=O)[C@H]([C@@H](C)O)NC(=O)CNC(=O)[C@H](CO)NC(=O)[C@H](C)NC(=O)[C@H](CSSC[C@@H](C(=O)N[C@@H](CC(C)C)C(=O)O)NC(=O)[C@H](CCC(N)=O)NC(=O)[C@H](CO)NC(=O)[C@H](Cc3ccc(O)cc3)NC(=O)[C@H](Cc3ccc(O)cc3)NC(=O)[C@@H]3CCCN3C(=O)[C@H](CC(N)=O)NC(=O)[C@H](CC(C)C)NC(=O)[C@H](C(C)C)NC(=O)[C@H](CCC(N)=O)NC2=O)NC(=O)[C@H](C(C)C)NC(=O)[C@H]([C@@H](C)O)NC(=O)[C@@H]2CCCN2C(=O)CNC(=O)[C@H](CO)NC(=O)[C@H](Cc2ccc(O)cc2)NC(=O)CNC1=O [CBM variant 15] (H-TQC(αMan)HYGQCGGIGYSGPTVCASGTTCQVLNPYYSQCL-OH; disulfide 8-25, 19-35) | 1.2 min | 12 ± 1.8 min
CC[C@H](C)[C@@H]1NC(=O)CNC(=O)CNC(=O)[C@@H](NC(=O)[C@H](CCC(N)=O)NC(=O)CNC(=O)[C@H](Cc2ccc(O)cc2)NC(=O)[C@H](Cc2c[nH]cn2)NC(=O)[C@@H](CO)NC(=O)[C@H](CCC(N)=O)NC(=O)[C@@H](N)[C@@H](C)O)CSSC[C@@H]2NC(=O)[C@H]([C@@H](C)O)NC(=O)[C@H]([C@@H](C)O)NC(=O)CNC(=O)[C@H](CO)NC(=O)[C@H](C)NC(=O)[C@H](CSSC[C@@H](C(=O)N[C@@H](CC(C)C)C(=O)O)NC(=O)[C@H](CCC(N)=O)NC(=O)[C@H](CO)NC(=O)[C@H](Cc3ccc(O)cc3)NC(=O)[C@H](Cc3ccc(O)cc3)NC(=O)[C@@H]3CCCN3C(=O)[C@H](CC(N)=O)NC(=O)[C@H](CC(C)C)NC(=O)[C@H](C(C)C)NC(=O)[C@H](CCC(N)=O)NC2=O)NC(=O)[C@H](C(C)C)NC(=O)[C@H]([C@@H](C)O)NC(=O)[C@@H]2CCCN2C(=O)CNC(=O)[C@H](CO)NC(=O)[C@H](Cc2ccc(O)cc2)NC(=O)CNC1=O [CBM variant 16] (H-TQ[dS]HYGQCGGIGYSGPTVCASGTTCQVLNPYYSQCL-OH; disulfide 8-25, 19-35) |  | 11.4 ± 2.4 min
CC[C@H](C)[C@@H]1NC(=O)CNC(=O)CNC(=O)[C@@H](NC(=O)[C@H](CCC(N)=O)NC(=O)CNC(=O)[C@H](Cc2ccc(O)cc2)NC(=O)[C@H](Cc2c[nH]cn2)NC(=O)[C@@H](CO[C@H]2O[C@H](CO)[C@@H](O)[C@H](O)[C@@H]2O)NC(=O)[C@H](CCC(N)=O)NC(=O)[C@@H](N)[C@@H](C)O)CSSC[C@@H]2NC(=O)[C@H]([C@@H](C)O)NC(=O)[C@H]([C@@H](C)O)NC(=O)CNC(=O)[C@H](CO)NC(=O)[C@H](C)NC(=O)[C@H](CSSC[C@@H](C(=O)N[C@@H](CC(C)C)C(=O)O)NC(=O)[C@H](CCC(N)=O)NC(=O)[C@H](CO)NC(=O)[C@H](Cc3ccc(O)cc3)NC(=O)[C@H](Cc3ccc(O)cc3)NC(=O)[C@@H]3CCCN3C(=O)[C@H](CC(N)=O)NC(=O)[C@H](CC(C)C)NC(=O)[C@H](C(C)C)NC(=O)[C@H](CCC(N)=O)NC2=O)NC(=O)[C@H](C(C)C)NC(=O)[C@H]([C@@H](C)O)NC(=O)[C@@H]2CCCN2C(=O)CNC(=O)[C@H](CO)NC(=O)[C@H](Cc2ccc(O)cc2)NC(=O)CNC1=O [CBM variant 17] (H-TQ[dS](αMan)HYGQCGGIGYSGPTVCASGTTCQVLNPYYSQCL-OH; disulfide 8-25, 19-35) |  | 10.2 ± 1.2 min
CC[C@H](C)[C@@H]1NC(=O)CNC(=O)CNC(=O)[C@@H](NC(=O)[C@H](CCC(N)=O)NC(=O)CNC(=O)[C@H](Cc2ccc(O)cc2)NC(=O)[C@H](Cc2c[nH]cn2)NC(=O)[C@H](CCO)NC(=O)[C@H](CCC(N)=O)NC(=O)[C@@H](N)[C@@H](C)O)CSSC[C@@H]2NC(=O)[C@H]([C@@H](C)O)NC(=O)[C@H]([C@@H](C)O)NC(=O)CNC(=O)[C@H](CO)NC(=O)[C@H](C)NC(=O)[C@H](CSSC[C@@H](C(=O)N[C@@H](CC(C)C)C(=O)O)NC(=O)[C@H](CCC(N)=O)NC(=O)[C@H](CO)NC(=O)[C@H](Cc3ccc(O)cc3)NC(=O)[C@H](Cc3ccc(O)cc3)NC(=O)[C@@H]3CCCN3C(=O)[C@H](CC(N)=O)NC(=O)[C@H](CC(C)C)NC(=O)[C@H](C(C)C)NC(=O)[C@H](CCC(N)=O)NC2=O)NC(=O)[C@H](C(C)C)NC(=O)[C@H]([C@@H](C)O)NC(=O)[C@@H]2CCCN2C(=O)CNC(=O)[C@H](CO)NC(=O)[C@H](Cc2ccc(O)cc2)NC(=O)CNC1=O [CBM variant 18] (H-TQ[hSer]HYGQCGGIGYSGPTVCASGTTCQVLNPYYSQCL-OH; disulfide 8-25, 19-35) |  | 18 ± 0.6 min
CC[C@H](C)[C@@H]1NC(=O)CNC(=O)CNC(=O)[C@@H](NC(=O)[C@H](CCC(N)=O)NC(=O)CNC(=O)[C@H](Cc2ccc(O)cc2)NC(=O)[C@H](Cc2c[nH]cn2)NC(=O)[C@H](CCO[C@H]2O[C@H](CO)[C@@H](O)[C@H](O)[C@@H]2O)NC(=O)[C@H](CCC(N)=O)NC(=O)[C@@H](N)[C@@H](C)O)CSSC[C@@H]2NC(=O)[C@H]([C@@H](C)O)NC(=O)[C@H]([C@@H](C)O)NC(=O)CNC(=O)[C@H](CO)NC(=O)[C@H](C)NC(=O)[C@H](CSSC[C@@H](C(=O)N[C@@H](CC(C)C)C(=O)O)NC(=O)[C@H](CCC(N)=O)NC(=O)[C@H](CO)NC(=O)[C@H](Cc3ccc(O)cc3)NC(=O)[C@H](Cc3ccc(O)cc3)NC(=O)[C@@H]3CCCN3C(=O)[C@H](CC(N)=O)NC(=O)[C@H](CC(C)C)NC(=O)[C@H](C(C)C)NC(=O)[C@H](CCC(N)=O)NC2=O)NC(=O)[C@H](C(C)C)NC(=O)[C@H]([C@@H](C)O)NC(=O)[C@@H]2CCCN2C(=O)CNC(=O)[C@H](CO)NC(=O)[C@H](Cc2ccc(O)cc2)NC(=O)CNC1=O [CBM variant 19] (H-TQ[hSer](αMan)HYGQCGGIGYSGPTVCASGTTCQVLNPYYSQCL-OH; disulfide 8-25, 19-35) | 2.4 min | 20.4 ± 4.2 min
CC[C@H](C)[C@@H]1NC(=O)CNC(=O)CNC(=O)[C@@H](NC(=O)[C@H](CCC(N)=O)NC(=O)CNC(=O)[C@H](Cc2ccc(O)cc2)NC(=O)[C@H](Cc2c[nH]cn2)NC(=O)[C@H](CO[C@H]2O[C@H](COP(=O)(O)O)[C@@H](O)[C@H](O)[C@@H]2O)NC(=O)[C@H](CCC(N)=O)NC(=O)[C@@H](N)[C@@H](C)O)CSSC[C@@H]2NC(=O)[C@H]([C@@H](C)O)NC(=O)[C@H]([C@@H](C)O)NC(=O)CNC(=O)[C@H](CO)NC(=O)[C@H](C)NC(=O)[C@H](CSSC[C@@H](C(=O)N[C@@H](CC(C)C)C(=O)O)NC(=O)[C@H](CCC(N)=O)NC(=O)[C@H](CO)NC(=O)[C@H](Cc3ccc(O)cc3)NC(=O)[C@H](Cc3ccc(O)cc3)NC(=O)[C@@H]3CCCN3C(=O)[C@H](CC(N)=O)NC(=O)[C@H](CC(C)C)NC(=O)[C@H](C(C)C)NC(=O)[C@H](CCC(N)=O)NC2=O)NC(=O)[C@H](C(C)C)NC(=O)[C@H]([C@@H](C)O)NC(=O)[C@@H]2CCCN2C(=O)CNC(=O)[C@H](CO)NC(=O)[C@H](Cc2ccc(O)cc2)NC(=O)CNC1=O [CBM variant 20] (H-TQS(X5)HYGQCGGIGYSGPTVCASGTTCQVLNPYYSQCL-OH; disulfide 8-25, 19-35) | 20.4 min | 34.2 ± 3.6 min
CC[C@H](C)[C@@H]1NC(=O)CNC(=O)CNC(=O)[C@@H](NC(=O)[C@H](CCC(N)=O)NC(=O)CNC(=O)[C@H](Cc2ccc(O)cc2)NC(=O)[C@H](Cc2c[nH]cn2)NC(=O)[C@H](CO[C@H]2O[C@H](CO)[C@@H](O)[C@H](O)[C@@H]2NC(C)=O)NC(=O)[C@H](CCC(N)=O)NC(=O)[C@@H](N)[C@@H](C)O)CSSC[C@@H]2NC(=O)[C@H]([C@@H](C)O)NC(=O)[C@H]([C@@H](C)O)NC(=O)CNC(=O)[C@H](CO)NC(=O)[C@H](C)NC(=O)[C@H](CSSC[C@@H](C(=O)N[C@@H](CC(C)C)C(=O)O)NC(=O)[C@H](CCC(N)=O)NC(=O)[C@H](CO)NC(=O)[C@H](Cc3ccc(O)cc3)NC(=O)[C@H](Cc3ccc(O)cc3)NC(=O)[C@@H]3CCCN3C(=O)[C@H](CC(N)=O)NC(=O)[C@H](CC(C)C)NC(=O)[C@H](C(C)C)NC(=O)[C@H](CCC(N)=O)NC2=O)NC(=O)[C@H](C(C)C)NC(=O)[C@H]([C@@H](C)O)NC(=O)[C@@H]2CCCN2C(=O)CNC(=O)[C@H](CO)NC(=O)[C@H](Cc2ccc(O)cc2)NC(=O)CNC1=O [CBM variant 21] (H-TQS(X7)HYGQCGGIGYSGPTVCASGTTCQVLNPYYSQCL-OH; disulfide 8-25, 19-35) | 27.6 min | 41.4 ± 5.4 min
CC[C@H](C)[C@@H]1NC(=O)CNC(=O)CNC(=O)[C@@H](NC(=O)[C@H](CCC(N)=O)NC(=O)CNC(=O)[C@H](Cc2ccc(O)cc2)NC(=O)[C@H](Cc2c[nH]cn2)NC(=O)[C@H](CO[C@H]2O[C@H](CO)[C@@H](O)[C@H](O)[C@H]2NC(C)=O)NC(=O)[C@H](CCC(N)=O)NC(=O)[C@@H](N)[C@@H](C)O)CSSC[C@@H]2NC(=O)[C@H]([C@@H](C)O)NC(=O)[C@H]([C@@H](C)O)NC(=O)CNC(=O)[C@H](CO)NC(=O)[C@H](C)NC(=O)[C@H](CSSC[C@@H](C(=O)N[C@@H](CC(C)C)C(=O)O)NC(=O)[C@H](CCC(N)=O)NC(=O)[C@H](CO)NC(=O)[C@H](Cc3ccc(O)cc3)NC(=O)[C@H](Cc3ccc(O)cc3)NC(=O)[C@@H]3CCCN3C(=O)[C@H](CC(N)=O)NC(=O)[C@H](CC(C)C)NC(=O)[C@H](C(C)C)NC(=O)[C@H](CCC(N)=O)NC2=O)NC(=O)[C@H](C(C)C)NC(=O)[C@H]([C@@H](C)O)NC(=O)[C@@H]2CCCN2C(=O)CNC(=O)[C@H](CO)NC(=O)[C@H](Cc2ccc(O)cc2)NC(=O)CNC1=O [CBM variant 22] (H-TQS(X3)HYGQCGGIGYSGPTVCASGTTCQVLNPYYSQCL-OH; disulfide 8-25, 19-35) | 10.2 min | 24 ± 0.6 min
